From US10941399B2, “Methods and compositions for gene-specific demethylation by DNA methyltransferase (DNMT)-RNA interaction” (Beth Israel Deaconess Medical Center, Inc., priority 2011, dated 2021)
“Also recorded” adds a separate entry of the source. [5mC] = 5-methylcytosine

Assays:
[1] = test system: myeloma cells; settings: cited from earlier work
[2] = test system: HL-60 cells; experiment: DRB and ML-60218 treatment of HL-60 cells, transcript levels by Taqman qRT-PCR; assay type: cell-based, human
Description: qRT-PCR: Sybr green reactions were performed using iQ Sybr Green supermix (Biorad, Hercules, Calif.) using the following parameters: 95° C. (10 min.), 40 cycles of 95° C. (15 sec.) and 60° C. (1 min.), and 72° C. (1 min.). TaqMan analysis was performed using Hotstart Probe One-step qRT-PCR master mix (USB) at the following conditions: 50° C. (10 min.), 95° C. (2 min.), and then 40 cycles of 95° C. (15 sec.) and 60° C. (60 sec.). qRT PCR primers were located in the coding region for the mRNA (black double headed arrow) and after the polyA signal for the ecRNA (white double headed arrow) (FIG. 1A). The sequences of primers used for TaqMan real time PCR were as follows: human C/EBPa: Forward 5′-TCG GTG GACAAG AAC AG-3′ (SEQ ID NO:18), Reverse 5′-GCA GGC GGT CAT TG-3′ (SEQ ID NO:19), and Taqman Probe 5′-ACA AGGCCA AGC AGC GC-3′ (SEQ ID NO:20); ecRNA: Forward 5′-GGTTGTCTGTGGGCCAGGTCA-3′(SEQ ID NO:21), Reverse 5′-AGAGCTCATGAAAGTCAGGATTG-3′ (SEQ ID NO:22), and Taqman Probe 5′-AAT AAT ACAGCA TTT TCC CTG GCG G-3′(SEQ ID NO:23); human C/EBPγ: Forward: 5′-GGC TAG AGG AGC AGGTAC AT-3′ (SEQ ID NO:24), Reverse: 5′-GCCTGGGTATGGATAACACTA-3′ (SEQ ID NO:25), and Taqman Probe: 5′-CGACAC CAC TCA TGT CAA TGG CTG-3′ (SEQ ID NO:26); human TP73: ABI Cat. #Hs01060631_m1; 18S rRNA: ABI Cat. #4310893E; and human 5S rRNA: ABI Cat. #Hs02385257_g1. The sequences of primers used for real-time RT PCR (Sybr) were as follows: human C/EBPa: Forward: 5′-CCG CTC CTCCAC GCC TGT CCT TAG-3′ (SEQ ID NO:27) and Reverse: 5′-GCCCCACAGCCAGATCTCTAGGTC-3′ (SEQ ID NO:28); ecRNA: Forward: 5′-TCATGAGCTCTCCATCCATCCTGA-3′(SEQ ID NO:29) and Reverse: 5′-CTG GCCGAG GGT CCT GCT GGA ATC-3′ (SEQ ID NO:30); and β-ACTIN Promega Cat. #G5740.
Double thymidine block (early S-phase block): HL-60 cells were grown overnight to 70-80% confluence, washed twice with 1×PBS, and cultured in DMEM (10% FCS)+2.5 mM thymidine for 18 h (first block). Thymidine was washed out with 1×PBS, and cells were grown in DMEM (10% FCS). After 8 hours, cells were cultured in presence of thymidine for 18 h (second block) and then released as described. Synchrony was monitored by flow cytometry analysis of propidium iodide-stained cells using a LSRII flow cytometer (BD Biosciences) at the Harvard Stem Cell Institute/Beth Israel Deaconess Center flow cytometry facility.
DRB and ML-60218 treatment: After release from double thymidine block, HL-60 cells were treated with 100 μM of 5,6-Dichlorobenzimidazole 1-β-D-ribofuranoside (DRB) (Sigma Aldrich) for 1, 2, and 3 hours. HL-60 cells were treated with 25 μM ML-60218 (2-chloro-N[5-(5-chloro-3-methyl-1-benzothiophen-2-yl)-2-methylpyrazol-3-yl]benzenesulfonamide, Calbiochem®) for 24 hours. Total RNA was harvested as described above and expression levels of C/EBPa, ecRNA, and 5S were measured by Taqman qRT-PCR.

[3] = biological target: DNMT1 (Homo sapiens, UniProt P26358); experiment: Electrophoretic gel mobility shift assays (EMSA/REMSA) and Kd determination with purified DNMT1; assay type: binding; set-up: purchased BPS Bioscience Inc; settings: for Kd: constant oligonucleotide concentration (1 nM) titrated with increasing DNMT1, nonlinear regression, read-out: dissociation constant (Kd)
DNMT1, sequence (P26358 whole entry): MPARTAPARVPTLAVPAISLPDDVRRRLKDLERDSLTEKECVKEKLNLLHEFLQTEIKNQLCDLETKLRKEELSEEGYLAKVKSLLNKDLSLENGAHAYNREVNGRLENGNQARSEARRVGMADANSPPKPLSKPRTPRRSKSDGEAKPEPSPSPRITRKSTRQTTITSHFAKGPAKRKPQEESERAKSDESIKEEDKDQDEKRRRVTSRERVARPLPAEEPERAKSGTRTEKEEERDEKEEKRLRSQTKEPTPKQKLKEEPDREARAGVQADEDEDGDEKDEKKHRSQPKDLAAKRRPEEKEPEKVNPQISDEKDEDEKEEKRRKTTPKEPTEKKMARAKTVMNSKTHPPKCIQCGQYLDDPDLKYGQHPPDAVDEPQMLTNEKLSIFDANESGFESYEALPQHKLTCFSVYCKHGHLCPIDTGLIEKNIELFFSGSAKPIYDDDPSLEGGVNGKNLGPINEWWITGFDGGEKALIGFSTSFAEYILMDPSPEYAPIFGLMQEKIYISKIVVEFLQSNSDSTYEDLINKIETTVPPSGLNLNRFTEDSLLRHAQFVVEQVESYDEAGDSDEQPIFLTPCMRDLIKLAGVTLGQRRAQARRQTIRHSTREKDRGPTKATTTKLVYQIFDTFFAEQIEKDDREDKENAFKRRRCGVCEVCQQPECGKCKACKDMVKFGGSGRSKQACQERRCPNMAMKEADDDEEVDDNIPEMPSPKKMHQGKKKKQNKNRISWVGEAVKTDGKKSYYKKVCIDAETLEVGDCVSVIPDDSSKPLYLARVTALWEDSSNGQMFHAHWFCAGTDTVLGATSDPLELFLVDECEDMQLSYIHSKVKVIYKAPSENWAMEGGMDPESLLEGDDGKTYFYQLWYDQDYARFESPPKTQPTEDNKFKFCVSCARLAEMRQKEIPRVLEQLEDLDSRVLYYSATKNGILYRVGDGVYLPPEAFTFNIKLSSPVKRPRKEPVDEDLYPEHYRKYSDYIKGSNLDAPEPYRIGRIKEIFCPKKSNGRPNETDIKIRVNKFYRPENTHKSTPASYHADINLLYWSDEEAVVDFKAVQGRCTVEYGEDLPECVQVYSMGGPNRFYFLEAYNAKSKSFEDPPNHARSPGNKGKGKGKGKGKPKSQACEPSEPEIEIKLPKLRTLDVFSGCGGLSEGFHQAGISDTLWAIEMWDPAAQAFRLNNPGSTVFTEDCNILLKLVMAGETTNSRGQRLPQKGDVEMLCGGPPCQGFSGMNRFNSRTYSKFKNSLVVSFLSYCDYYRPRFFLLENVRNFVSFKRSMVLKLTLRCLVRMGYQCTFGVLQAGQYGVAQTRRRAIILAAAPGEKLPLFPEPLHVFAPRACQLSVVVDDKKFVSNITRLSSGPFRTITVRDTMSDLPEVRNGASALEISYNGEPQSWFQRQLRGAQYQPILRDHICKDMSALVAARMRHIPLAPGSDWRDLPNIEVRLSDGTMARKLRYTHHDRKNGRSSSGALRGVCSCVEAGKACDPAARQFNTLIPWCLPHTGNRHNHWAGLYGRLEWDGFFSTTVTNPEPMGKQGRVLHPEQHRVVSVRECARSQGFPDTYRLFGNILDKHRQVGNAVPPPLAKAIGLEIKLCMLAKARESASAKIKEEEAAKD
Description: Electrophoretic gel mobility shift assays (EMSAs) and Kd determination: DNA and RNA oligonucleotides (15 pmol) were end-labeled with [γ-32P] ATP (Perkin Elmer) and T4 polynucleotide kinase (New England Biolabs). Reactions were incubated at 37° C. for 1h and then passed through G-25 spin columns (GE Healthcare) according to the manufacturer's instructions to remove unincorporated radioactivity. Labeled samples were gel-purified on 10% polyacrylamide gels. Binding reactions were carried out in 10 μL volumes in the following buffer: 5 mM Tris pH 7.4, 5 mM MgCl2, 1 mM DTT, 3% v/v glycerol, 100 mM NaCl. Various amounts of purified DNMT1 protein (BPS Bioscience Inc., 0.021-0.156 μM) were incubated with 1.1 nM of 32P-labeled dsDNA and ss/ds RNAs. In the competitive assay, a fixed amount of protein and increasing amounts of competitors (dsDNA or poly (dI-dC)) were used. All reactions were assembled on ice and then incubated at room temperature. Samples were loaded onto 6% native polyacrylamide gels (0.5×TBE) at 4° C. for 3 h at 140 V. Gels were dried and exposed to X-ray film and a PhosphorImager screen. Data were analyzed with ImageQuant software. For affinity assays, the percent shifted species was determined as follows: the migration of the labeled DNA in this reaction was defined as zero percent shifted and the ratio of the PhosphorImager counts in the area of the lane above this band to the total counts in the lane was defined as background and subtracted from all other lanes. This band represented total input. Subsequent lanes containing DNMT1-nucleic acid complexes were treated identically, and the percentage complex formation was calculated as follows: [Input-(free probe for each lane+background/input)]. All experiments contained a control reaction lacking DNMT1. The percentage complex formation was plotted as a function of DNMT1 concentration using nonlinear regression analysis using Prism 4.0a.

[4] = 100 μM DRB, 1, 2, 3 h after release from double thymidine block

## Nc1ncn([C@H]2C[C@H](O)[C@@H](CO)O2)c(=O)n1 [5-aza-2′-deoxycytidine]
[1]
  PU.1 expression: upregulation
  growth of myeloma cells: growth arrest

## OC[C@H]1O[C@@H](n2cnc3cc(Cl)c(Cl)cc32)[C@H](O)[C@@H]1O [DRB, 5,6-Dichlorobenzimidazole 1-β-D-ribofuranoside]
[2]; [4]
  C/EBPa mRNA expression level: strong down-regulation
  ecRNA expression level: no decrease; also recorded: did not reduce

## Cc1c(-c2cc(NS(=O)(=O)c3ccccc3Cl)n(C)n2)sc2ccc(Cl)cc12 [ML-60218, 2-chloro-N[5-(5-chloro-3-methyl-1-benzothiophen-2-yl)-2-methylpyrazol-3-yl]benzenesulfonamide]
[2]; 25 μM ML-60218, 24 hours
  5S rRNA level: significantly reduced
  C/EBPa mRNA level: little effect; also recorded: only moderately affected
  ecRNA level: marked down-regulation; also recorded: significantly reduced

## NCCCNCCCCNCCCN [spermine]
[3]; REMSA with increasing concentrations of spermine
  effect of spermine on RNA-DNMT1 binding: Only a thousand-fold molar excess of spermine began to moderately affect the binding; also recorded: no significant changes in binding were observed

## R04: ssRNA oligonucleotide of C/EBPa ecRNA, positions 4777-4798 of SEQ ID NO:8 (SEQ ID NO:63), lacking stem-and-loop-like structures (UCACACACACCGCAGCUCCAGA; chemistry not given here; listed as Homo sapiens)
[3]
  DNMT1 binding affinity in REMSA (in words): did not display the same binding affinity as folded RNA; also recorded: lower DNMT1 affinity compared to R05

## RNA: folded ssRNA oligonucleotide of C/EBPa ecRNA, positions 4627-4648 of SEQ ID NO:8 (SEQ ID NO:62) (CUGAGGCCUUGGCGAGGCUUCU; chemistry not given here; listed as Homo sapiens)
[3]; EMSA
  Kd: 45 nM
[3]; EMSA, increasing DNMT1 concentrations
  DNMT1 concentration at which initial complex is formed: < 0.013 µM
[3]; ratio versus hmDNA and mDNA
  strength of DNMT1 complex with RNA compared to hmDNA and mDNA: 3 fold
[3]; ratio versus umDNA
  strength of DNMT1 complex with RNA compared to umDNA: 2 fold

## hmDNA: hemimethylated dsDNA probe (SEQ ID NOs:65, 72) (chain 1 CTGAGGCCTTGGCGAGGCTTCT; chain 2 AGAAGCCTCGCCAAGGCCTCAG; chain 1: DNA, [5mC] at 13, backbone and methylation of C not given here; chain 2: DNA, backbone not given here; listed as Homo sapiens)
[3]; EMSA
  Kd: 140 nM

## mDNA: methylated dsDNA probe (SEQ ID NOs:66, 73) (chain 1 CTGAGGCCTTGGCGAGGCTTCT; chain 2 AGAAGCCTCGCCAAGGCCTCAG; chain 1: DNA, [5mC] at 13, backbone not given here; chain 2: DNA, [5mC] at 9, backbone not given here; listed as Homo sapiens)
[3]; EMSA
  Kd: 110 nM

## mutated R01: R01 with C to U substitutions in CpG dinucleotides (SEQ ID NO:69) (CUGGGAUGCAGGUGGUGUCAGGC; chemistry not given here; listed as Homo sapiens)
[3]; stem-and-loop-like structure preserved
  DNMT1 binding after C to U substitution of CpG dinucleotides: not affected

## umDNA: unmethylated dsDNA probe (SEQ ID NOs:64, 71) (chain 1 CTGAGGCCTTGGCGAGGCTTCT; chain 2 AGAAGCCTCGCCAAGGCCTCAG; DNA, backbone not given here; listed as Homo sapiens)
[3]; EMSA
  Kd: 82 nM
